Measured values published in PubChem BioAssay (NCI).
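At the GI50, growth is halved. TGI denotes the concentration required for complete inhibition of growth.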

Assays:
Experiment in all cases: NCI anticancer screen, dose series, 384-well format
UACC-62 melanoma = system: UACC-62 melanoma
RXF 393 renal = system: RXF 393 renal
COLO 205 colon = system: COLO 205 colon
CAKI-1 renal = system: CAKI-1 renal
MDA-MB-468 breast = system: MDA-MB-468 breast
SNB-19 CNS = system: SNB-19 CNS
LOX IMVI melanoma = system: LOX IMVI melanoma
UACC-257 melanoma = system: UACC-257 melanoma
SR leukemia = system: SR leukemia
SN12C renal = system: SN12C renal
HCC-2998 colon = system: HCC-2998 colon
M14 melanoma = system: M14 melanoma
BT-549 breast = system: BT-549 breast
U251 glioblastoma = system: U251 glioblastoma
HOP-92 NSCLC = system: HOP-92 NSCLC
KM12 colon = system: KM12 colon
SK-OV-3 ovarian = system: SK-OV-3 ovarian
SNB-75 CNS = system: SNB-75 CNS
OVCAR-4 ovarian = system: OVCAR-4 ovarian
NCI/ADR-RES ovarian = system: NCI/ADR-RES ovarian
IGROV1 ovarian = system: IGROV1 ovarian
NCI-H522 lung = system: NCI-H522 lung
MOLT-4 leukemia = system: MOLT-4 leukemia
786-0 renal = system: 786-0 renal
A498 renal = system: A498 renal
OVCAR-5 ovarian = system: OVCAR-5 ovarian
NCI-H322M lung = system: NCI-H322M lung
OVCAR-3 ovarian = system: OVCAR-3 ovarian
HL-60(TB) leukemia = system: HL-60(TB) leukemia
SF-539 CNS = system: SF-539 CNS
MALME-3M melanoma = system: MALME-3M melanoma
TK-10 renal = system: TK-10 renal
MDA-MB-231 breast = system: MDA-MB-231 breast
CCRF-CEM leukemia = system: CCRF-CEM leukemia
HCT-116 colon = system: HCT-116 colon
MCF7 breast = system: MCF7 breast
SF-295 CNS = system: SF-295 CNS
SK-MEL-5 melanoma = system: SK-MEL-5 melanoma
HS 578T breast = system: HS 578T breast
T-47D breast = system: T-47D breast
SW-620 colon = system: SW-620 colon
NCI-H23 lung = system: NCI-H23 lung
EKVX NSCLC = system: EKVX NSCLC
A549 NSCLC = system: A549 NSCLC
OVCAR-8 ovarian = system: OVCAR-8 ovarian
MDA-MB-435 melanoma = system: MDA-MB-435 melanoma
SF-268 CNS = system: SF-268 CNS
NCI-H460 NSCLC = system: NCI-H460 NSCLC
HOP-62 NSCLC = system: HOP-62 NSCLC
DU-145 prostate = system: DU-145 prostate
PC-3 prostate = system: PC-3 prostate
HCT-15 colon = system: HCT-15 colon
RPMI-8226 leukemia = system: RPMI-8226 leukemia
SK-MEL-28 melanoma = system: SK-MEL-28 melanoma
NCI-H226 lung = system: NCI-H226 lung
UO-31 renal = system: UO-31 renal
ACHN renal = system: ACHN renal
HT29 colon = system: HT29 colon

Cn1cnc2c(F)c(Nc3ccc(Br)cc3F)c(C(=O)NOCCO)cc21
GI50 (UACC-62 melanoma): 0.0203 µM | TGI (UACC-62 melanoma): 1.2 µM | TGI (RXF 393 renal): > 21 µM | GI50 (COLO 205 colon): < 0.0149 µM | TGI (COLO 205 colon): 0.322 µM | TGI (CAKI-1 renal): > 100 µM | GI50 (MDA-MB-468 breast): > 100 µM | TGI (MDA-MB-468 breast): > 100 µM | GI50 (SNB-19 CNS): > 100 µM | TGI (SNB-19 CNS): > 100 µM | GI50 (LOX IMVI melanoma): 1.25 µM | TGI (LOX IMVI melanoma): 18.7 µM | GI50 (UACC-257 melanoma): 0.0333 µM | TGI (UACC-257 melanoma): 0.241 µM | GI50 (SR leukemia): 24.7 µM | TGI (SR leukemia): > 100 µM | GI50 (SN12C renal): 12.5 µM | TGI (SN12C renal): > 100 µM | GI50 (HCC-2998 colon): < 0.01 µM | TGI (HCC-2998 colon): 0.733 µM | GI50 (M14 melanoma): < 0.0121 µM | TGI (M14 melanoma): 0.161 µM | GI50 (BT-549 breast): 15.7 µM | TGI (BT-549 breast): > 100 µM | GI50 (U251 glioblastoma): 12.4 µM | TGI (U251 glioblastoma): > 100 µM | GI50 (HOP-92 NSCLC): 1.38 µM | TGI (HOP-92 NSCLC): 9.01 µM | GI50 (KM12 colon): 0.419 µM | TGI (KM12 colon): > 100 µM | GI50 (SK-OV-3 ovarian): > 100 µM | TGI (SK-OV-3 ovarian): > 100 µM | TGI (SNB-75 CNS): > 75.8 µM | GI50 (OVCAR-4 ovarian): 17.9 µM | TGI (OVCAR-4 ovarian): > 100 µM | GI50 (NCI/ADR-RES ovarian): 93.9 µM | TGI (NCI/ADR-RES ovarian): > 100 µM | GI50 (IGROV1 ovarian): 1.55 µM | TGI (IGROV1 ovarian): > 100 µM | GI50 (NCI-H522 lung): > 45.4 µM | TGI (NCI-H522 lung): > 100 µM | GI50 (MOLT-4 leukemia): > 100 µM | TGI (MOLT-4 leukemia): > 100 µM | GI50 (786-0 renal): > 32.1 µM | TGI (786-0 renal): > 100 µM | GI50 (A498 renal): 16.9 µM | TGI (A498 renal): > 100 µM | GI50 (OVCAR-5 ovarian): 0.922 µM | TGI (OVCAR-5 ovarian): > 100 µM | GI50 (NCI-H322M lung): 1.96 µM | TGI (NCI-H322M lung): > 57.7 µM | GI50 (OVCAR-3 ovarian): > 100 µM | TGI (OVCAR-3 ovarian): > 100 µM | GI50 (HL-60(TB) leukemia): 0.0399 µM | TGI (HL-60(TB) leukemia): > 100 µM | GI50 (SF-539 CNS): 21.9 µM | TGI (SF-539 CNS): > 90.9 µM | GI50 (MALME-3M melanoma): < 0.01 µM | TGI (MALME-3M melanoma): 0.0159 µM | GI50 (TK-10 renal): 38.3 µM | TGI (TK-10 renal): > 100 µM | GI50 (MDA-MB-231 breast): 0.422 µM | TGI (MDA-MB-231 breast): 8.26 µM | GI50 (CCRF-CEM leukemia): > 100 µM | TGI (CCRF-CEM leukemia): > 100 µM | GI50 (HCT-116 colon): 0.498 µM | TGI (HCT-116 colon): 15.2 µM | GI50 (MCF7 breast): > 100 µM | TGI (MCF7 breast): > 100 µM | GI50 (SF-295 CNS): > 100 µM | TGI (SF-295 CNS): > 100 µM | GI50 (SK-MEL-5 melanoma): 0.0317 µM | TGI (HS 578T breast): > 88.2 µM | GI50 (T-47D breast): > 100 µM | TGI (T-47D breast): > 100 µM | GI50 (SW-620 colon): 0.0211 µM | TGI (SW-620 colon): > 100 µM | GI50 (NCI-H23 lung): 0.325 µM | TGI (NCI-H23 lung): 17.8 µM | GI50 (EKVX NSCLC): 29.4 µM | TGI (EKVX NSCLC): > 100 µM | GI50 (A549 NSCLC): 0.553 µM | TGI (A549 NSCLC): > 100 µM | GI50 (OVCAR-8 ovarian): > 67.4 µM | TGI (OVCAR-8 ovarian): > 100 µM | GI50 (MDA-MB-435 melanoma): 0.1 µM | TGI (MDA-MB-435 melanoma): > 100 µM | GI50 (SF-268 CNS): > 100 µM | TGI (SF-268 CNS): > 100 µM | GI50 (NCI-H460 NSCLC): > 100 µM | TGI (NCI-H460 NSCLC): > 100 µM | TGI (HOP-62 NSCLC): > 100 µM | GI50 (DU-145 prostate): 31.8 µM | TGI (DU-145 prostate): > 100 µM | GI50 (PC-3 prostate): > 100 µM | TGI (PC-3 prostate): > 100 µM | GI50 (HCT-15 colon): > 44.7 µM | TGI (HCT-15 colon): > 100 µM | GI50 (RPMI-8226 leukemia): > 56 µM | TGI (RPMI-8226 leukemia): > 100 µM | GI50 (SK-MEL-28 melanoma): < 0.0143 µM | TGI (SK-MEL-28 melanoma): 0.162 µM | GI50 (NCI-H226 lung): 0.405 µM | TGI (NCI-H226 lung): > 31.9 µM | GI50 (UO-31 renal): 4.96 µM | TGI (UO-31 renal): > 45.9 µM | GI50 (ACHN renal): > 33.9 µM | TGI (ACHN renal): > 100 µM | GI50 (HT29 colon): 0.0524 µM | TGI (HT29 colon): > 100 µM
